Data on 16 compounds can be found in patent publication US12588678B2, “Oxazoline compound, synthesis method therefor and application thereof” (NANKAI UNIVERSITY, priority 2019, dated 2026).

In test [1] the test system is Tetranychus cinnabarinus mite larvae. Kind of test: Larvicidal activity test, dipping method on bean seedling leaves. In kind it is in vivo. The note with it: for mortality at 100 µg/mL / mortality at 200 µg/mL / mortality at 10 µg/mL / mortality at 1 µg/mL / mortality at 0.01 µg/mL / mortality at 0.05 µg/mL / mortality at 0.1 µg/mL: Tetranychus cinnabarinus, 96 h, checked after 4 days; for mortality at 100 µg/mL: read-out: mortality of mite larvae (%), 100 mg/L; for mortality at 200 µg/mL: read-out: mortality of mite larvae (%), 200 mg/L; for mortality at 10 µg/mL: read-out: mortality of mite larvae (%), 10 mg/L; for mortality at 1 µg/mL: read-out: mortality of mite larvae (%), 1 mg/L; for acaricidal activity compared with etoxazole: Tetranychus cinnabarinus eggs and larvae, etoxazole as reference; for mortality at 0.01 µg/mL: read-out: mortality of mite larvae (%), 0.01 mg/L; for mortality at 0.05 µg/mL: read-out: mortality of mite larvae (%), 0.05 mg/L; for mortality at 0.1 µg/mL: read-out: mortality of mite larvae (%), 0.1 mg/L. The text has this: (§1) The assay examples are used to illustrate the acaricidal activity against Tetranychus cinnabarinus (mortality of mite larvae and mortality of mite eggs) of the compounds having the structure represented by formula (I), and the results are shown in tables 1 to 9, where mortality of mite larvae % =(number of dead mite larvae applied/total number of mite larvae applied)×100, and mortality of mite eggs %= (number of dead mite eggs applied/total number of mite eggs applied)×100.
Tetranychus cinnabarinus bred indoors on bean seedlings was used as a test subject by the dipping method. Move adult mites onto the newly grown complete bean seedling leaves with two leaves, cut off the bean seedlings, place the bean seedlings in a greenhouse with illumination at 25° C. for laying eggs for 24 hours, then remove adult mites and keep mite eggs. And continuously culture in the greenhouse for 5 days until mite eggs hatch into mite larvae (ensuring that the number of the mites on each tested leaf is not less than 60).
Completely immerse the bean seedling leaves containing the mite larvae into the sample solution to be detected with Tween at the prepared concentration for 5-6 seconds by using tweezers, slightly throw off residual liquid, put the bean seedling leaves back to the culture cup, continuously culture for 4 days and check the result. One of the plants was immersed in a solution containing no sample to be tested and the remaining additives were identical to the sample solution as a blank control. Each compound was replicated three times.

Test [2] deals with Tetranychus cinnabarinus mite eggs. Put plainly: Activity against mite eggs, dipping method on bean seedling leaves. In kind it is in vivo. Particulars: for mortality at 1 µg/mL / mortality at 10 µg/mL / mortality at 100 µg/mL / mortality at 200 µg/mL / mortality at 0.01 µg/mL / mortality at 0.05 µg/mL / mortality at 0.1 µg/mL: Tetranychus cinnabarinus, 96 h, checked after 4 days; for mortality at 1 µg/mL: read-out: mortality of mite eggs (%), 1 mg/L; for mortality at 10 µg/mL: read-out: mortality of mite eggs (%), 10 mg/L; for mortality at 100 µg/mL: read-out: mortality of mite eggs (%), 100 mg/L; for mortality at 200 µg/mL: read-out: mortality of mite eggs (%), 200 mg/L; for mortality at 0.01 µg/mL: read-out: mortality of mite eggs (%), 0.01 mg/L; for mortality at 0.05 µg/mL: read-out: mortality of mite eggs (%), 0.05 mg/L; for mortality at 0.1 µg/mL: read-out: mortality of mite eggs (%), 0.1 mg/L.
Description: as §1
Tetranychus cinnabarinus bred indoors on bean seedlings was used as a test subject by the dipping method. Move female adult mites onto the newly grown complete bean seedling leaves with two leaves, cut off the bean seedlings, place the bean seedlings in a greenhouse with illumination at 25° C. for laying eggs for 24 hours, then remove adult mites and keep mite eggs. After continuously culturing in the greenhouse for one day, completely soak the bean seedling leaves containing the acarid eggs into the prepared sample solution to be tested for 5-6 seconds by using tweezers, slightly throw off residual liquid, put the bean seedling leaves back to the culture cup, continuously culture for 4 days and then check the result. One of the plants was immersed in a solution containing no sample to be tested and the remaining additives were identical to the sample solution as a blank control. Each compound was replicated three times.

On to `Fc1cccc(F)c1C1=NC(c2ccc(CN3CCCC3)cc2)CO1` (stereo not drawn) [Compound R1-1], for which, in test [1], the mortality at 100 µg/mL turned out to be 50% and the mortality at 200 µg/mL was 70%. For the same compound, in test [2], the mortality at 1 µg/mL came out at 30%, the mortality at 10 µg/mL turned out to be 60%, the mortality at 100 µg/mL worked out at 70% and the mortality at 200 µg/mL turned out to be 95%.

`Fc1cccc(F)c1C1=NC(c2ccc(CN3CCCCCC3)cc2)CO1` (stereo not drawn) [Compound R1-2]: in test [1], the mortality at 10 µg/mL came out at 35%, the mortality at 100 µg/mL turned out to be 75% and the mortality at 200 µg/mL is 90%. Besides, in test [2], the mortality at 10 µg/mL was determined as 55%, the mortality at 100 µg/mL was determined as 80% and the mortality at 200 µg/mL was 95%.

Regarding `Fc1cccc(F)c1C1=NC(c2ccc(CN3CCCCCCC3)cc2)CO1` (stereo not drawn) [Compound R1-3], in test [1], the mortality at 1 µg/mL is 55%, the mortality at 10 µg/mL amounted to 70%, the mortality at 100 µg/mL turned out to be 95% and the mortality at 200 µg/mL was determined as 100%. Moreover, in test [2], the mortality at 1 µg/mL is 55%, the mortality at 10 µg/mL turned out to be 70%, the mortality at 100 µg/mL worked out at 90% and the mortality at 200 µg/mL stood at 100%.

On to `Fc1cccc(F)c1C1=NC(c2ccc(CN3CCOCC3)cc2)CO1` (stereo not drawn) [Compound R1-4], for which, in test [1], the mortality at 10 µg/mL stood at 30%, the mortality at 100 µg/mL is 70% and the mortality at 200 µg/mL was found to be 90%. Further, in test [2], the mortality at 10 µg/mL stood at 50%, the mortality at 100 µg/mL was determined as 70% and the mortality at 200 µg/mL stood at 90%.

With `Fc1cccc(F)c1C1=NC(c2ccc(Cn3cccc3)cc2)CO1` (stereo not drawn) [Compound R1-5], in test [1], the mortality at 10 µg/mL is 40%, the mortality at 100 µg/mL amounted to 90% and the mortality at 200 µg/mL was determined as 100%. In test [2], the mortality at 10 µg/mL turned out to be 45%, the mortality at 100 µg/mL was determined as 100% and the mortality at 200 µg/mL worked out at 100%.

Take `Fc1cccc(F)c1C1=NC(c2ccc(CN3CC=CC3)cc2)CO1` (stereo not drawn) [Compound R1-6]: in test [1], the mortality at 1 µg/mL is 50%, the mortality at 10 µg/mL is 70%, the mortality at 100 µg/mL was 100% and the mortality at 200 µg/mL was found to be 100%. Also, in test [2], the mortality at 1 µg/mL worked out at 50%, the mortality at 10 µg/mL came to 70%, the mortality at 100 µg/mL came to 100% and the mortality at 200 µg/mL was 100%.

As for `CC(=O)N1CCN(Cc2ccc(C3COC(c4c(F)cccc4F)=N3)cc2)C1=O` (stereo not drawn) [Compound R1-8], in test [1], the mortality at 1 µg/mL was 35%, the mortality at 10 µg/mL stood at 65%, the mortality at 100 µg/mL was 95% and the mortality at 200 µg/mL came to 100%. Moreover, in test [2], the mortality at 10 µg/mL is 40%, the mortality at 100 µg/mL was determined as 95% and the mortality at 200 µg/mL stood at 100%.

For `O=C1CCC(=O)N1Cc1ccc(C2COC(c3c(F)cccc3F)=N2)cc1` (stereo not drawn) [Compound R1-9], in test [1], the mortality at 10 µg/mL came out at 35%, the mortality at 100 µg/mL stood at 80% and the mortality at 200 µg/mL turned out to be 85%. For the same compound, in test [2], the mortality at 10 µg/mL was determined as 50%, the mortality at 100 µg/mL was found to be 70% and the mortality at 200 µg/mL worked out at 95%.

`O=C1c2ccccc2C(=O)N1Cc1ccc(C2COC(c3c(F)cccc3F)=N2)cc1` (stereo not drawn) [Compound R1-10]: in test [1], the “acaricidal activity compared with etoxazole” value is listed as “higher acaricidal activity than etoxazole”, the mortality at 0.01 µg/mL came to 40%, the mortality at 0.05 µg/mL turned out to be 55% and the mortality at 0.1 µg/mL stood at 70%. Also, in test [1], the mortality at 1 µg/mL turned out to be 80%, the mortality at 10 µg/mL is 95%, the mortality at 100 µg/mL worked out at 100% and the mortality at 200 µg/mL came out at 100%. Further, in test [2], the mortality at 0.01 µg/mL worked out at 40%, the mortality at 0.05 µg/mL is 65%, the mortality at 0.1 µg/mL was 75% and the mortality at 1 µg/mL was found to be 85%. In test [2], the mortality at 10 µg/mL was found to be 90%, the mortality at 100 µg/mL is 100% and the mortality at 200 µg/mL was found to be 100%. The “activity on mite eggs, times that of etoxazole” value in test [2] (relative to etoxazole) was determined as 10 times.

With `Fc1cccc(F)c1C1=NC(c2ccc(Cn3cccn3)cc2)CO1` (stereo not drawn) [Compound R1-12], in test [1], the mortality at 10 µg/mL stood at 40%, the mortality at 100 µg/mL came out at 70% and the mortality at 200 µg/mL came out at 100%. In test [2], the mortality at 10 µg/mL turned out to be 50%, the mortality at 100 µg/mL was determined as 80% and the mortality at 200 µg/mL amounted to 90%.

For the compound `Fc1cccc(F)c1C1=NC(c2ccc(CN3CCc4ccccc4C3)cc2)CO1` (stereo not drawn) [Compound R1-13], in test [1], the mortality at 1 µg/mL stood at 40%, the mortality at 10 µg/mL worked out at 70%, the mortality at 100 µg/mL amounted to 88% and the mortality at 200 µg/mL was 100%. In addition, in test [2], the mortality at 1 µg/mL is 60%, the mortality at 10 µg/mL was 90%, the mortality at 100 µg/mL is 100% and the mortality at 200 µg/mL came to 100%.

Consider `Fc1cccc(F)c1C1=NC(c2ccc(CN3CCc4ccccc43)cc2)CO1` (stereo not drawn) [Compound R1-14], for which, in test [1], the mortality at 1 µg/mL stood at 30%, the mortality at 10 µg/mL is 70%, the mortality at 100 µg/mL came to 95% and the mortality at 200 µg/mL was found to be 100%. In test [2], the mortality at 1 µg/mL was found to be 40%, the mortality at 10 µg/mL was 70%, the mortality at 100 µg/mL worked out at 95% and the mortality at 200 µg/mL was determined as 100%.

Consider `Fc1cccc(F)c1C1=NC(c2ccc(Cn3ccc4ccccc43)cc2)CO1` (stereo not drawn) [Compound R1-15], for which, in test [1], the “acaricidal activity compared with etoxazole” value was “higher acaricidal activity than etoxazole”, the mortality at 0.01 µg/mL worked out at 35%, the mortality at 0.05 µg/mL came out at 50% and the mortality at 0.1 µg/mL came to 65%. Besides, in test [1], the mortality at 1 µg/mL is 80%, the mortality at 10 µg/mL is 90%, the mortality at 100 µg/mL was determined as 100% and the mortality at 200 µg/mL was 100%. Moreover, in test [2], the mortality at 0.01 µg/mL was 35%, the mortality at 0.05 µg/mL was found to be 65%, the mortality at 0.1 µg/mL worked out at 80% and the mortality at 1 µg/mL worked out at 90%. In test [2], the mortality at 10 µg/mL came to 100%, the mortality at 100 µg/mL turned out to be 100% and the mortality at 200 µg/mL worked out at 100%.

On to `Cc1ccc2c(ccn2Cc2ccc(C3COC(c4c(F)cccc4F)=N3)cc2)c1` (stereo not drawn) [Compound R1-16], for which, in test [1], the mortality at 1 µg/mL was found to be 50%, the mortality at 10 µg/mL was 65%, the mortality at 100 µg/mL stood at 100% and the mortality at 200 µg/mL was 100%. Besides, in test [2], the mortality at 1 µg/mL was determined as 50%, the mortality at 10 µg/mL was found to be 70%, the mortality at 100 µg/mL amounted to 100% and the mortality at 200 µg/mL was determined as 100%.

Consider `Cc1ccc2ccn(Cc3ccc(C4COC(c5c(F)cccc5F)=N4)cc3)c2c1` (stereo not drawn) [Compound R1-17], for which, in test [1], the mortality at 1 µg/mL came to 20%, the mortality at 10 µg/mL turned out to be 40%, the mortality at 100 µg/mL was 100% and the mortality at 200 µg/mL turned out to be 100%. Besides, in test [2], the mortality at 1 µg/mL stood at 40%, the mortality at 10 µg/mL turned out to be 65%, the mortality at 100 µg/mL came out at 100% and the mortality at 200 µg/mL came to 100%.

For the compound `Cc1cn(Cc2ccc(C3COC(c4ccccc4F)=N3)cc2)c2ccccc12` (stereo not drawn) [Compound R1-19], in test [1], the “acaricidal activity compared with etoxazole” value is given as “higher acaricidal activity than etoxazole”.
